Test results: PMC8958511, “Development of Sulfamoylated 4-(1-Phenyl-1H-1,2,3-triazol-4-yl)phenol Derivatives as Potent Steroid Sulfatase Inhibitors for Efficient Treatment of Breast Cancer” (Journal of Medicinal Chemistry, 2022)
Where “and” joins values, the source holds several entries; their conditions need not be identical. Identical values can stand only once. Like-named read-outs stand apart in the source and are kept apart here.

Experiments:
[1] = blood morphology, blood biochemistry and organ weights of mice with 67NR tumor; conditions: for spleen weight: 50 mg/kg b.w. per os; for spleen weight / ALT / AST / creatinine / urea: mice with 67NR tumor; for HCT / HGB / MCH / MCHC / MCV / MPV / PCT / PDW / PLT / RBC / RDW: Table S2, mice with 67NR tumor, 50 mg/kg; for ALT / AST / creatinine / urea: Table S3, plasma, 50 mg/kg per os, N=9
Description: At the end of the study, the autopsy of the animals was performed: blood was collected for further analyses of the morphology (Table S2, Supporting Information) and biochemistry (Table S3 and Figure S6, Supporting Information) and for the determination of the plasma estradiol level using the ELISA method.
Mice were injected orthotopically (in the mammary gland fat pad) with 67NR mouse mammary tumor cells derived from in vitro culture (1.5 × 10^5 cells/0.05 mL Hanks fluid/mouse). The growth of tumors has been observed. […] Animals were observed during the next 17 days and euthanized. During observation, body weight and tumor growth were monitored three times a week. The volume of the tumors was calculated according to the following formula: TV = a^2·b/2 [mm^3], (where: a—width and b—length of the tumor). Blood, tumor tissue, and liver were harvested during autopsy for further analyses. Blood aliquots (about 500 μL) were collected in EDTA containing vials for morphology analysis (Mythic 18 analyzer, Orphee), and then, the plasma was collected (centrifuged at 2500g for 15 min at 4 °C within 1 h after collection) for biochemical parameter analysis (Cobas c111, Roche).

STS in MCF-7 cells = target: T1, STS in MCF-7 cells (Homo sapiens, UniProt P08842); assay: radioisotope cellular assay with [3H]E1S in MCF-7 cells; type: cell-based; conditions: for remaining activity at 0.001 µM / remaining activity at 0.01 µM / remaining activity at 0.1 µM: MCF7, 20 h; for remaining activity at 0.001 µM: read-out: residual STS activity [%] 1 nM; for remaining activity at 0.01 µM: read-out: residual STS activity [%] 10 nM; for remaining activity at 0.1 µM: read-out: residual STS activity [%] 100 nM
T1 construct: The radioisotope cellular assay was performed using the MCF-7 cell line; endogenous in cells; host or cells: MCF-7
T1 sequence (P08842 22-583): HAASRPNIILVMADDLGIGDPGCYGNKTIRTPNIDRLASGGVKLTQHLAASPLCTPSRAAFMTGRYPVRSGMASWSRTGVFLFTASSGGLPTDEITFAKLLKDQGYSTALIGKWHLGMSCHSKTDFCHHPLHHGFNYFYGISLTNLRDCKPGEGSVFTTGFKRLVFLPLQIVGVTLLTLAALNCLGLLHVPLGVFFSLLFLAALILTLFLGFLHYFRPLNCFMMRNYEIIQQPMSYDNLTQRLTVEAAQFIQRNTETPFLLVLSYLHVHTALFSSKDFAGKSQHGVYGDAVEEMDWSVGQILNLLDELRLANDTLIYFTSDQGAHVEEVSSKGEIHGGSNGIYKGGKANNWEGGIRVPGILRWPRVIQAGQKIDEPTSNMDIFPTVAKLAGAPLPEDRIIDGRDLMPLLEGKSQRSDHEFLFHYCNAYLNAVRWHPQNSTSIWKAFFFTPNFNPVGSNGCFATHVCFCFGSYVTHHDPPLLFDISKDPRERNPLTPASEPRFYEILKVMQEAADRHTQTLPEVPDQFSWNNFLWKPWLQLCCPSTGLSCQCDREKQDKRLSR
Description: All compounds were initially tested for their in cell inhibitory action at a 100 nM concentration.
The inhibitory potency of the synthesized compounds was examined in two ways, including an enzymatic assay and the radioisotope cellular test. […] The radioisotope cellular assay was performed using the MCF-7 cell line in the presence of radiolabeled [^3H]E1S.
The evaluation of the inhibitory effect of each compound with breast cancer cells was performed using a previously described method (27) with some modifications. MCF-7 cells were maintained in Dulbecco’s modified Eagle medium supplemented with 10% fetal bovine serum and cultured in the above medium until 80% confluence. […] After incubation, the medium (0.45 mL) was collected from each well, and the product formed by STS hydrolysis was extracted with toluene (4 mL). STS activity was measured using a MicroBeta radioluminometer (PerkinElmer). Assays with MCF-7 cells were carried out in triplicate.

[2] = type: in vivo; conditions: Table S1, MTD study, 50 mg/kg
Description: The mice were thus weighed, and their general health was observed. […] At the end of the study, the mice were sacrificed by dislocation of the cervical vertebrae, and the internal organs were examined macroscopically.
The mice were weighed, and their general health was observed. […] At the end of the MTD study, the autopsy was performed, and the internal organs (liver, kidney, and spleen) were weighed and macroscopically assessed.

[3] = system: 67NR mouse mammary tumor cells; assay: antitumor activity in 67NR orthotopic mouse breast carcinoma model; type: in vivo, BALB/c mice; conditions: for body weight of treated tumor-bearing mice (observation) / tumor growth inhibition (TGI) / mice responded to the treatment / mice with much larger tumor than the mean control volume / mice with tumor volume reduced by approx. 50% compared to the TV control: 50 mg/kg b.w. per os; for tumor growth inhibition (TGI): 5 days a week, 67NR tumor, N = 9, vs control group; for mice responded to the treatment / mice with much larger tumor than the mean control volume / mice with tumor volume reduced by approx. 50% compared to the TV control: nine mice/group
Description: The tumor volume (TV) and body weight were measured three times a week. Results for individual groups are reported in Figure S5, Supporting Information. Based on TV data, the tumor growth inhibition (TGI) was calculated for groups that received compounds and compared to that of the control group. […] The body weight of the treated animals was monitored during the study, and the body weight change (BWC) index was calculated (Figure 4). […] Body weight loss was observed between D2 and D11 and reached 4.5% at most.
The growth of tumors has been observed.

[4] = target: T2, STS isolated from the human placenta (Homo sapiens, UniProt P08842); assay: radioisotope enzymatic assay with STS isolated from human placenta and [3H]E1S; type: biochemical; conditions: for remaining activity at 0.5 µM: read-out: residual STS activity [%]; for residual STS activity [%]: 0.5 μM inhibitor concentration, substrate [3H]E1S, 3 nM, triplicate
T2 construct: radioisotope enzymatic assay using STS isolated from the human placenta; from tissue; host or cells: human placenta
T2 sequence (P08842 22-583): T1 sequence (P08842 22-583)
Description: The inhibitory potency of the synthesized compounds was examined in two ways, including an enzymatic assay and the radioisotope cellular test. The enzymatic assay was performed using the STS enzyme isolated from human placenta and using radiolabeled [^3H]E1S as a substrate.
The total volume of the reaction mixture was 100 μL. […] After incubation, the reaction mixture (90 μL) was collected from each well, and the product formed by STS hydrolysis was extracted with toluene (0.5 mL). STS activity was measured using a MicroBeta radioluminometer (PerkinElmer). Enzymatic assays were carried out in triplicate.

[5] = target: T3, STS activity in murine livers and tumors (Mus musculus, UniProt P50427); assay: determination of STS activity in murine livers and tumors of treated mice; conditions: for Residual STS activity [%] Liver: liver tissue of mice treated per os at 50 mg/kg b.w.; for Residual STS activity [%] Tumor: tumor tissue of mice treated per os at 50 mg/kg b.w.
T3 sequence (P50427 23-624): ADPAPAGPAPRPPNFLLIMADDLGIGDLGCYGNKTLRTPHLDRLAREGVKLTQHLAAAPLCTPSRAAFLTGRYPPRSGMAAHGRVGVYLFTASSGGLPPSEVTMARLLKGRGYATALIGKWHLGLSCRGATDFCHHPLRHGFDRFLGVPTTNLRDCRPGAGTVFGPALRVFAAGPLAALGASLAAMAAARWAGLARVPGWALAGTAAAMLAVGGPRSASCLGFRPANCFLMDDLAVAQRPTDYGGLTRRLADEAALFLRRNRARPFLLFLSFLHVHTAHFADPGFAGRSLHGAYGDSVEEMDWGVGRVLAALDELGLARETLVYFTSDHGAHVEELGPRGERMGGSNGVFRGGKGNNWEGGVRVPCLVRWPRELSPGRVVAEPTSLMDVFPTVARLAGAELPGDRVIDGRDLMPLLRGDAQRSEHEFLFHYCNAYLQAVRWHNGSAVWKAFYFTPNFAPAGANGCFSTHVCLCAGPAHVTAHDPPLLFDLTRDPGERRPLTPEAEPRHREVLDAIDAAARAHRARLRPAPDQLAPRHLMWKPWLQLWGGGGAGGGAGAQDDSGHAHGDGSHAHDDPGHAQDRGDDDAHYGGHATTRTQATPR
Description: Then, the samples were subjected to sonication in five cycles of 10 s each and centrifuged for 10 min at 14 000g to pellet the tissue debris. Total protein concentrations were determined in the obtained lysates using the Bradford method, and 100 μg of the total protein was used for each reaction as a source of STS activity. […] E1S (4 × 10^4 Bq, 3 nM) and 20 mM Tris-HCl, pH 7.4. The volume of the reaction mixtures was adjusted to 100 μL with water. After incubation, 60 μL of each reaction mixture was collected, and the product formed by STS hydrolysis was extracted with toluene (0.5 mL). STS activity was measured using a MicroBeta radioluminometer (PerkinElmer). Assays were carried out in triplicate.

STS = system: STS; set-up: method as in earlier work; conditions: STS inhibitory effect, system not given; ref 14−16; cited from earlier work
[6] = MCF-7 cells, substrate [3H]E1S, 3 nM

Row | SMILES | spleen weight [1] | HCT [1] | HGB [1] | MCH [1] | MCHC [1] | MCV [1] | PCT [1] | PDW [1] | PLT [1] | RBC [1] | RDW [1] | creatinine [1] | urea [1] | remaining activity at 0.001 µM (STS in MCF-7 cells) [%] | remaining activity at 0.01 µM (STS in MCF-7 cells) [%] | remaining activity at 0.1 µM (STS in MCF-7 cells) [%] | IC50 (STS in MCF-7 cells; [6]) [nM] | GRAN [2] | HCT [2] | HGB [2] | other results
1 | NS(=O)(=O)Oc1ccc(-c2cn(-c3cccc(Cl)c3)nn2)cc1 [4a, 4-(1-(3-Chlorophenyl)-1H-1,2,3-triazol-4-yl)phenyl Sulfamate] | Significantly smaller spleens weights | 35,9±3,2% | 13,5±1,1 g/dL | 17,7±0,5 pg | 37,6±0,7 g/dL | 47,1±1 fL | 0,250±0,03% | 24,9±3 fL | 503,3±59,8 x103/uL | 7,6±0,8 x106/uL | 18±0,5% | 5,75±1,52 umol/L | 7,92±0,66 mmol/L | 38.2 | 28.1 ± 1.12 | 2.4 ± 0.07 | 1.9 ± 0.06 | 13,2±3,6% | 41±0,2% | 15,1±0,2 g/dL | MPV [1]: 4,9±0,1 fL; ALT [1]: 27,3±3,9 U/L; AST [1]: 91,7±15,4 U/L; LIMF [2]: 83,5±4,1%; MCH [2]: 17,3±0,3 pg; MCHC [2]: 36,9±0,5 g/dL; MCV [2]: 46,8±0,2 fL; MON [2]: 3,3±0,6%; PLT [2]: 518±49 10x3/uL; RBC [2]: 8,8±0,1 10x6/uL; RDW [2]: 17,9±0,6%; WBC [2]: 4,5±0,3 10x3/uL; body weight of treated tumor-bearing mice (observation) [3]: A body weight increase was observed; tumor growth inhibition (TGI) [3]: 47%; mice responded to the treatment [3]: 7 mice; mice with much larger tumor than the mean control volume [3]: 1 mice; mice with tumor volume reduced by approx. 50% compared to the TV control [3]: 5 mice; remaining activity at 0.5 µM [4]: 19.5 ± 0.97%; Residual STS activity [%] Liver [5]: 12,1%; Residual STS activity [%] Tumor [5]: 5,8%
2 | NS(=O)(=O)Oc1ccc(-c2cn(-c3cc(Cl)cc(Cl)c3)nn2)cc1 [4b, 4-(1-(3,5-Dichlorophenyl)-1H-1,2,3-triazol-4-yl)phenyl Sulfamate] | Significantly smaller spleens weights | 36,6±2,7% | 13,7±0,9 g/dL | 17,6±0,5 pg | 37,6±0,6 g/dL | 46,8±0,9 fL | 0,248±0,03% | 27,1±3,2 fL | 512,2±72,3 x103/uL | 7,8±0,7 x106/uL | 18,2±0,5% | 4,53±1,48 umol/L | 6,94±0,69 mmol/L | 63.7 ± 2.55 | 17.8 ± 0.62 | 2 ± 0.1 | 1.71 ± 0.05 | 11,0±1,7% | 44,1±1,3% | 16,4±0,6 g/dL | MPV [1]: 4,9±0,2 fL; ALT [1]: 27,1±3,8 U/L; AST [1]: 86,6±18,5 U/L; LIMF [2]: 85,7±1,7%; MCH [2]: 17,4±0,01 pg; MCHC [2]: 37,1±0,4 g/dL; MCV [2]: 46,9±0,5 fL; MON [2]: 3,3±0,5%; PLT [2]: 533±34 10x3/uL; RBC [2]: 9,4±0,4 10x6/uL; RDW [2]: 17,5±0,6%; WBC [2]: 5,1±1,6 10x3/uL; side effects and toxicity ([3]; 50 mg/kg): no evidence of side effects and toxicity; body weight of treated tumor-bearing mice (observation) [3]: A body weight increase was observed; mice responded to the treatment [3]: 7 mice; mice with tumor volume reduced by approx. 50% compared to the TV control [3]: 5 mice; residual STS activity [%] [4]: 13.32 ± 0.67%; remaining activity at 0.5 µM [4]: 13.3%; Residual STS activity [%] Liver [5]: 14,5%; Residual STS activity [%] Tumor [5]: 5,1%
3 | NS(=O)(=O)Oc1ccc(-c2cn(-c3cc(F)cc(F)c3)nn2)cc1 [5l, 4-(1-(3,5-difluorophenyl)-1H-1,2,3-triazol-4-yl)phenyl sulfamate] | Significantly smaller spleens weights | 34,7±2,1% | 13,3±0,8 g/dL | 17,8±0,3 pg | 38,3±0,4 g/dL | 46,4±0,7 fL | 0,233±0,035% | 29,3±4,6 fL | 463,1±74 x103/uL | 7,5±0,5 x106/uL | 18,4±1% | 5,6±1,65 umol/L | 8,1±0,7 mmol/L | 13.6 | 1 | 1 | 0.21 ± 0.01 | 10,6±0,2% | 42±1,9% | 15,4±0,5 g/dL | LIMF [2]: 86,6±0,2%; MCH [2]: 17,3±0,1 pg; MCHC [2]: 36,6±0,4 g/dL; MCV [2]: 47,2±0,2 fL; MON [2]: 2,9±0,4%; PLT [2]: 596±64 10x3/uL; RBC [2]: 8,9±0,4 10x6/uL; RDW [2]: 17,3±0,2%; WBC [2]: 4,2±0,6 10x3/uL; tumor growth inhibition (TGI) [3]: 39%; mice responded to the treatment [3]: 8 mice; mice with much larger tumor than the mean control volume [3]: 1 mice; mice with tumor volume reduced by approx. 50% compared to the TV control [3]: 3 mice; residual STS activity [%] [4]: 17.34 ± 0.87%; remaining activity at 0.5 µM [4]: 17.3%; Residual STS activity [%] Liver [5]: 10,1%; Residual STS activity [%] Tumor [5]: 1,3%
4 | NS(=O)(=O)Oc1ccc(-c2cn(-c3cccc(F)c3)nn2)cc1 [5g] | Significantly smaller spleens weights | 35±2,4% | 13,5±0,9 g/dL | 18,3±0,9 pg | 38,6±0,6 g/dL | 47,4±2,8 fL | 0,255±0,04% | 26,9±4,8 fL | 508,6±69 x103/uL | 7,4±0,7 x106/uL | 19,1±1,5% | 6,51±1,49 umol/L | 8,83±1,32 mmol/L | 57.3 ± 3.44 | 1 | 1 ± 0.04 | 1.69 ± 0.08 | 12,4±1,7% | 41,1±0,5% | 15,2±0,2 g/dL | MPV [1]: 5±0,1 fL; AST [1]: 102,2±23,1 U/L; LIMF [2]: 84,3±2,3%; MCH [2]: 17,2±0,2 pg; MCHC [2]: 36,7±0,2 g/dL; MCV [2]: 46,9±0,3 fL; MON [2]: 3,4±0,6%; PLT [2]: 522±33 10x3/uL; RBC [2]: 8,8±0,01 10x6/uL; RDW [2]: 17,4±0,3%; WBC [2]: 4,9±1,3 10x3/uL; tumor growth inhibition (TGI) [3]: 42%; mice responded to the treatment [3]: 8 mice; mice with tumor volume reduced by approx. 50% compared to the TV control [3]: 5 mice; remaining activity at 0.5 µM [4]: 37.9 ± 1.9%; Residual STS activity [%] Liver [5]: 13,6%; Residual STS activity [%] Tumor [5]: 5,2%
5 | NS(=O)(=O)Oc1ccc2c3c(c(=O)oc2c1)CCCCC3 [Irosustat, reference compound] | – | – | – | – | – | – | – | – | – | – | – | – | – | – | – | – | – | – | – | – | residual STS activity [%] 1 nM (STS in MCF-7 cells; MCF-7 cells, 1 nM inhibitor, substrate [3H]E1S, 3 nM, triplicate): 16.8% and 16.8 ± 0.5%; residual STS activity [%] 10 nM (STS in MCF-7 cells; MCF-7 cells, 10 nM inhibitor, substrate [3H]E1S, 3 nM, triplicate): 12.9% and 12.9 ± 0.77%; residual STS activity [%] 100 nM (STS in MCF-7 cells; MCF-7 cells, 100 nM inhibitor, substrate [3H]E1S, 3 nM, triplicate): 2.4% and 2.4 ± 0.07%; IC50 (STS): 8 nM
